Measured values: patent US8052961B2, “Highly fluorinated β-amino acids and methods of making and using same” (University of Utah Foundation, priority 2006, dated 2011)

Tests used:
[1] = 1-octanol/water partition coefficient (Poct) of tripeptides
Protocol: The 1-octanol/water partition coefficients (Poct) of the two tripeptides were evaluated.
To 20 mg of peptide 4 or 5 were added 2 mL of water and 2 mL of 1-octanol. The resulting mixture was shaken with a mixer for 10 min. After the aqueous and the organic phases were fully separated, 50 μL of solution was taken out from each phase for HPLC analysis. To a mixture of 200 μL aqueous solution and 200 μL 1-octanol solution were added 1.8 mL of water and 1.8 mL of 1-octanol. The resulting mixture was shaken with a mixer for 10 min. After the phases were fully separated, 50 μL of solution was taken out from each phase for reversed-phases HPLC analysis.

[2] = cited from earlier work

Molecule | melting point [°C] | also measured
NC(=O)CNC(=O)C(CNC(=O)CNC=O)(COC(C(F)(F)F)(C(F)(F)F)C(F)(F)F)COC(C(F)(F)F)(C(F)(F)F)C(F)(F)F [tripeptide 4, Formyl-Gly-βFa-Gly-Amide] | – | logP at 10 min [1]: > 1
octreotide | – | in vivo half-life (t1/2) [2]: 2 h
NCC(COC(C(F)(F)F)(C(F)(F)F)C(F)(F)F)(COC(C(F)(F)F)(C(F)(F)F)C(F)(F)F)C(=O)O | 182 to 184 | –
CC(C)(C)OC(=O)NCC(COC(C(F)(F)F)(C(F)(F)F)C(F)(F)F)(COC(C(F)(F)F)(C(F)(F)F)C(F)(F)F)C(=O)O | 128 to 130 | –
O=C(NCC(COC(C(F)(F)F)(C(F)(F)F)C(F)(F)F)(COC(C(F)(F)F)(C(F)(F)F)C(F)(F)F)C(=O)O)OCC1c2ccccc2-c2ccccc21 | 104 to 105 | –
